According to patent US9981909B2 (Janssen Pharmaceutica NV, priority 2008, dated 2018):
Where a name gives a salt, the structure may show the parent alone. Read-outs that look alike come from different tables or passages of the source.

Key:
[1] = target: human SERT (Homo sapiens (Human), UniProt P31645); assay: human SERT binding assay with [3H]-citalopram on HEK-293 membranes; details: read-out: hSERT binding Ki
[2] = target: h5HT2A (Homo sapiens (Human), UniProt P28223); assay: h5HT2A binding
[3] = target: h5HT2C (Homo sapiens (Human), UniProt P28335); assay: h5HT2C binding
[4] = target: h5HT2B (Homo sapiens (Human), UniProt P41595); assay: h5HT2B binding
[5] = target: r5-HT7 receptor (Rattus norvegicus (Rat), UniProt P32305); assay: HitHunter cAMP assay, antagonist testing against 100 nM 5-CT; assay type: cell-based
Procedure, shortened: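 Whole r5-HT7-transfected HEK-293 cells first received test compound for 10 min. They were then exposed to 100 nM 5-CT for 20 min before lysis and competitive immunoassay of cAMP. Affinity came from displacement of [3H]5-CT on membranes of the same recombinant line, expressed as Ki.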

[6] = target: rat 5-HT7 receptor (Rattus norvegicus (Rat), UniProt P32305); assay: r5-HT7 binding assay, competitive radioligand binding with [3H]5-CT
Procedure, shortened: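 For h5-HT6, stably transfected HEK-293 membranes were exposed to 1.7 nM [3H]LSD plus increasing compound for 60 min at room temperature, with 10 μM clozapine for nonspecific binding. The r5-HT7 assay used [3H]5-CT competition on recombinant HEK-293 membranes, Ki derived from radioactivity counts.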

[7] = target: h5-HT6 (Homo sapiens (Human), UniProt P50406); assay: h5-HT6 binding assay with [3H]LSD on HEK-293 membranes; details: read-out: h5HT6 binding Ki
Method: Receptor binding was performed using membrane fractions prepared from the HEK-293 cell line recombinantly expressing rat 5-HT7 receptors (NCBI accession NM_022938). Compound affinity for the rat 5-HT7 receptor subtype was evaluated by competitive radioligand binding assays using 5-carboxamido[^3H]tryptamine ([^3H]5-CT) (Amersham Biosciences, cat. 90000403) detection. HitHunter™ cAMP assays are in-vitro based competitive immunoassays. The assay was performed on the HEK-293 cell line stably transfected with r5-HT7 receptor. Cells were pre-incubated with test compounds for 10 minutes. For antagonist testing, the cells were then challenged with 100 nM 5-CT for 20 minutes. Cells were then lysed and cAMP measured according to manufacturers protocol (Amersham, cat. NET791250UC) or [^3H]mesulergine (Amersham, cat. TRK1041). The assay was performed on membranes prepared from HEK-293 cells stably transfected with h5-HT6. Following centrifugation, membranes were resuspended and incubated for 60 min at room temperature with 1.7 nM [^3H]LSD in the presence of increasing concentration of test compounds. Nonspecific binding was defined in the presence of 10 μM clozapine (Tocris, cat. TRK1068). Homogenized HEK-293 membranes expressing the human SERT were incubated in 50 mM Tris-HCl (pH 7.5), 120 mM NaCl, 5 mM KCl with [^3H]-citalopram (3 nM) with or without test compounds. Nonspecific binding was determined in the presence of 10 μM fluoxetine. Radioactivity readouts and Ki values were performed as previously described for r5-HT7. […] Compounds were assayed in their free form or as salts, as indicated in the Examples section above.

[8] = antagonist testing, 100 nM 5-CT challenge, HEK-293 r5-HT7, read-out: R5HT7 cAMP pKb (converted)
[9] = rat 5-HT7 receptor, HEK-293 membranes
[10] = h5-HT6, [3H]LSD, HEK-293 membranes

Sequence of human SERT (P31645 whole entry): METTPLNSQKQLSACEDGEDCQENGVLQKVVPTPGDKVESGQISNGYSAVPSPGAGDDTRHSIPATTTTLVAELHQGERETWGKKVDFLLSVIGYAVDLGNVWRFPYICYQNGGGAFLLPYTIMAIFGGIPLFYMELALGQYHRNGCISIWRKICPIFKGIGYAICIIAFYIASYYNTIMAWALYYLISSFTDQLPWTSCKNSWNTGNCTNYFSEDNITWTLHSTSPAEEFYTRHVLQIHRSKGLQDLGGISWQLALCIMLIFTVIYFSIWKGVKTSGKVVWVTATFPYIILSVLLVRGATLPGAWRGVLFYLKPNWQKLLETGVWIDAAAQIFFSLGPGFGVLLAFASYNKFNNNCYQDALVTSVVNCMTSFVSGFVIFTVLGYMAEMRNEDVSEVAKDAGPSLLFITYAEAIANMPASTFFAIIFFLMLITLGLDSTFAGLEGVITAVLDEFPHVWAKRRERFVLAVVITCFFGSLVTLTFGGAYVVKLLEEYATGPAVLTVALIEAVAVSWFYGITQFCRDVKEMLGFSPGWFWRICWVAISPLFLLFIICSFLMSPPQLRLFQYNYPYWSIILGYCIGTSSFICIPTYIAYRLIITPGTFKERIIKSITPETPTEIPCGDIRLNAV
Sequence of h5HT2C (P28335 33-458): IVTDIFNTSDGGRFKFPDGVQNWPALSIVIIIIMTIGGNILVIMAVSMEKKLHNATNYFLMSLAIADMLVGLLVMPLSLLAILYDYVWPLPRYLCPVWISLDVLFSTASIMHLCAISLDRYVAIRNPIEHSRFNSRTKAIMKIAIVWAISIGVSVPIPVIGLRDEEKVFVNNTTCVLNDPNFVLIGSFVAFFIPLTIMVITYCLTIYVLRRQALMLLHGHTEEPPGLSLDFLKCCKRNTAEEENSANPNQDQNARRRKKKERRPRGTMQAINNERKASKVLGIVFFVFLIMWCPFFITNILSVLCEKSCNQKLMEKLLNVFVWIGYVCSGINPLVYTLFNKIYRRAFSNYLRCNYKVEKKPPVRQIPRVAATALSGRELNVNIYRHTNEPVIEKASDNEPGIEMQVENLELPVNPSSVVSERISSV
Sequence of h5HT2B (P41595 whole entry): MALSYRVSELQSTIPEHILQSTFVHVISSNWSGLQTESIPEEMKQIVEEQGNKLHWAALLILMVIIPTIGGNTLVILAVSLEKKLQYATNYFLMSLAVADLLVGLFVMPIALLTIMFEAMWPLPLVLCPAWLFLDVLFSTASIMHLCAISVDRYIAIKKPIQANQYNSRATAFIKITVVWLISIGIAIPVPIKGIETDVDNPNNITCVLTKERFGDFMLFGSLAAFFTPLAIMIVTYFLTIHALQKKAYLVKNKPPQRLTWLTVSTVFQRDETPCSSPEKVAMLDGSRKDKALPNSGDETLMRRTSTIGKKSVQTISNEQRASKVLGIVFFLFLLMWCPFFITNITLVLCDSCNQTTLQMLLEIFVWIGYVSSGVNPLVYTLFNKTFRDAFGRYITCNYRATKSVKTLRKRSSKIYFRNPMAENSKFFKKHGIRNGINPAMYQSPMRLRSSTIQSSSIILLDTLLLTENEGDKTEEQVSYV
Sequence of h5HT2A (P28223 whole entry): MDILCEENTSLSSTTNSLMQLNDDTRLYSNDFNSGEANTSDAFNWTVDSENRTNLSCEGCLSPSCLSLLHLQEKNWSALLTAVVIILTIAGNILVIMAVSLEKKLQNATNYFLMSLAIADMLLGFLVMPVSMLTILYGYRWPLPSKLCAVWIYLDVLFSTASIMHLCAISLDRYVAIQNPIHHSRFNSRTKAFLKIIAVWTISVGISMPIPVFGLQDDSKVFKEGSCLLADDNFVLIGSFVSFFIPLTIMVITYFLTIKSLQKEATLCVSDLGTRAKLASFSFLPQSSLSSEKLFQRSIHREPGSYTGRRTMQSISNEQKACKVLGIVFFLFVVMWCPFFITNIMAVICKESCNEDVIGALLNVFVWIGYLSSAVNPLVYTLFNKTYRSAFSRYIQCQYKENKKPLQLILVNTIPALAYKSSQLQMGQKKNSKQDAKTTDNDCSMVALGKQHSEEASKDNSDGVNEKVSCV
Sequence of r5-HT7 receptor (P32305 1-435): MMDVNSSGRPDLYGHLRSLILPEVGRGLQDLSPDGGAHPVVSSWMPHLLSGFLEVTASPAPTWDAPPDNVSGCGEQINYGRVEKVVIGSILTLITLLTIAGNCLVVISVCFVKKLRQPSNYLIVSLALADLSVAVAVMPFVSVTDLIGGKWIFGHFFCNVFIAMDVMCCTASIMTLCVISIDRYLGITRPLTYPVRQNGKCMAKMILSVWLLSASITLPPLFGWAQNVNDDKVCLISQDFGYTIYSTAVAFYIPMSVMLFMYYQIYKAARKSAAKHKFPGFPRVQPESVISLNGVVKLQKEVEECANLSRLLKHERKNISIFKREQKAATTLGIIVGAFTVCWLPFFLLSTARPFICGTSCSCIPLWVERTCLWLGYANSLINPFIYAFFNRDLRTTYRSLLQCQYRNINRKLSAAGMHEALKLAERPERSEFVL
Sequence of rat 5-HT7 receptor (P32305 1-435): as above
Sequence of h5-HT6 (P50406 whole entry): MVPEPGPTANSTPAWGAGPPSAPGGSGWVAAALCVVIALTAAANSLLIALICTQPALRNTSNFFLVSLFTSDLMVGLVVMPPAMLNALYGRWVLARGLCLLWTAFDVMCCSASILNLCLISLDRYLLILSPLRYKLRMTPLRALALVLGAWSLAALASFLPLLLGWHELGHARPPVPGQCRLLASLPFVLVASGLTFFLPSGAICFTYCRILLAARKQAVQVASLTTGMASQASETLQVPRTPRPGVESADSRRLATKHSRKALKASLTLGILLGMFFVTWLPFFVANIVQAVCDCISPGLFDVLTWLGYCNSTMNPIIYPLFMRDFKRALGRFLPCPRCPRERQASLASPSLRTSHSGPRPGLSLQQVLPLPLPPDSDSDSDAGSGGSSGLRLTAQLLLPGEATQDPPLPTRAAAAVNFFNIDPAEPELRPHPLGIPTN

Row | Structure (SMILES) | Ki [1] [nM] | Ki [2] [nM] | Ki [3] [nM] | Ki [4] [nM] | Kb [5, 8] [nM] | Ki [6, 9] [nM] | Ki [7, 10] [nM] | Ki ([6]; rat 5-HT7, HEK-293 membranes) [nM] | Ki ([7]; h5-HT6, HEK-293 membranes, [3H]LSD) [nM] | Kb [5] [nM]
1 | Clc1ccc(OC2CCc3ccc(Cl)cc32)c(OC2CNC2)c1 (racemic) [Example 159, (±)-3-[5-Chloro-2-(6-chloro-indan-1-yloxy)-phenoxy]-azetidine] | 21 | 6 | 196 | 41 | 7.94 | 17 |  |  |  | 
2 | Cc1nc(COc2ccc(Cl)cc2OC2CNC2)cs1 [Example 29, 4-[2-(Azetidin-3-yloxy)-4-chloro-phenoxymethyl]-2-methyl-thiazole] | 27 | 225 | 1110 | 529 | 126 | 83 |  |  |  | 
3 | FC(F)(F)c1ccc2c(c1)C(Oc1ccc(Cl)cc1OC1CNC1)CC2 (centres unmarked) [Example 160, 3-[5-Chloro-2-(6-trifluoromethyl-indan-1-yloxy)-phenoxy]-azetidine] | 210 | 5 | 146 | 25 | 5.01 | 15 |  |  |  | 
4 | FC(F)(COc1ccc(Cl)cc1OC1CNC1)c1ccccc1 [Example 184, 3-[5-Chloro-2-(2,2-difluoro-2-phenyl-ethoxy)-phenoxy]-azetidine] | 124 | 5 | 38 | 12 | 50.1 | 23 |  |  |  | 
5 | FC(F)(F)c1ccc(COc2ccc(Br)cc2OC2CNC2)o1 [Example 10, 3-[5-Bromo-2-(5-trifluoromethyl-furan-2-ylmethoxy)-phenoxy]-azetidine] | 39 |  |  |  | 6.31 | 7 | 50 |  |  | 
6 | Fc1ccc(CCOc2ccc(Cl)cc2OC2CNC2)cc1 [Example 193, 3-[5-Chloro-2-[2-(4-fluoro-phenyl)-ethoxy]-phenoxy]-azetidine] | 9 | 11 | 71 | 14 |  | 5 |  |  |  | 
7 | FC(F)(F)c1ccnc(COc2ccc(Cl)cc2OC2CNC2)c1 [Example 81, 2-[2-(Azetidin-3-yloxy)-4-chloro-phenoxymethyl]-4-trifluoromethyl-pyridine] | 1170 | 76 | 590 | 367 |  | 97 |  |  |  | 
8 | Fc1cccc(CCOc2ccc(Cl)cc2OC2CNC2)c1 [Example 191, 3-[5-Chloro-2-[2-(3-fluoro-phenyl)-ethoxy]-phenoxy]-azetidine] | 7 | 8 | 53 | 11 |  | 8 |  |  |  | 
9 | FC(F)(F)c1cccc(COc2ccc(Cl)cc2OC2CNC2)n1 [Example 79, 2-[2-(Azetidin-3-yloxy)-4-chloro-phenoxymethyl]-6-trifluoromethyl-pyridine] | 3 | 69 | 290 | 248 | 50.1 | 26 |  |  |  | 
10 | FC(F)(F)c1ccc(COc2ccc(Cl)cc2OC2CNC2)o1 [Example 54, 3-[5-Chloro-2-(5-trifluoromethyl-furan-2-ylmethoxy)-phenoxy]-azetidine] | 28 |  |  |  | 7.94 | 6 | 77 |  |  | 
11 | Brc1ccc(Oc2ccccc2)c(OC2CNC2)c1 [Example 244, 3-(5-Bromo-2-phenoxy-phenoxy)-azetidine] | 5000 |  |  |  | 251 |  |  | 20 | 46 | 
12 | COc1ccc(CCOc2ccc(Cl)cc2OC2CNC2)cc1 [Example 194, 3-[5-Chloro-2-[2-(4-methoxy-phenyl)-ethoxy]-phenoxy]-azetidine] | 141 | 4 | 81 | 195 |  | 4 |  |  |  | 
13 | Clc1ccc(C2(COc3ccc(Cl)cc3OC3CNC3)CCC2)cc1 [Example 188, 3-[5-Chloro-2-[1-(4-chloro-phenyl)-cyclobutylmethoxy]-phenoxy]-azetidine] | 65 | 8 | 143 | 28 |  | 34 |  |  |  | 
14 | CN1CC[C@@H](Oc2cc(Cl)ccc2OCc2cccc(Cl)c2)C1 [Example 59, (R)-3-[5-Chloro-2-(3-chloro-benzyloxy)-phenoxy]-1-methyl-pyrrolidine] | 353 |  |  |  | 15.8 | 27 | 84 |  |  | 
15 | FC(F)(F)c1ccc(OCc2ccccc2)c(OC2CNC2)c1 [Example 201, hydrochloride] | 56 | 67 | 498 | 184 | 50.1 | 31 |  |  |  | 
16 | Clc1ccc(CCOc2ccc(Cl)cc2OC2CNC2)cc1 [Example 192, 3-[5-Chloro-2-[2-(4-chloro-phenyl)-ethoxy]-phenoxy]-azetidine] | 88 | 9 | 140 | 22 |  | 8 |  |  |  | 
17 | Clc1cccc(COc2ccc(Cl)cc2OC2CNC2)c1 [Example 37, 3-[5-Chloro-2-(3-chloro-benzyloxy)-phenoxy]-azetidine] | 7 |  |  |  | 126 | 8 | 89 |  |  | 
18 | Cc1ccc2c(c1)C(Oc1ccc(Cl)cc1OC1CNC1)CC2 (racemic) [Example 158, (±)-3-[5-Chloro-2-(6-methyl-indan-1-yloxy)-phenoxy]-azetidine] | 67 | 8 | 146 | 36 | 10 | 15 |  |  |  | 
19 | CN1CC[C@@H](Oc2ccc(Cl)cc2OCc2ccccc2)C1 [Example 91, (R)-3-(2-Benzyloxy-4-chloro-phenoxy)-1-methyl-pyrrolidine] |  | 5 | 120 | 50 |  | 500 |  |  |  | 
20 | FC(F)(F)c1ccc(OCc2ccc(C(F)(F)F)o2)c(OC2CNC2)c1 [Example 199, 3-[5-Trifluoromethyl-2-(5-trifluoromethyl-furan-2-ylmethoxy)-phenoxy]-azetidine] | 128 | 103 | 526 | 1220 | 39.8 | 18 |  |  |  | 
21 | Clc1ccc(OCC2CCCCC2)c(OC2CNC2)c1 [Example 73, 3-(5-Chloro-2-cyclohexylmethoxy-phenoxy)-azetidine trifluoroacetate] |  |  |  |  |  | 23 | 12 |  |  | 251
22 | C[C@@H](Oc1ccc(C(F)(F)F)cc1OC1CNC1)c1cccc(C(F)(F)F)c1 (stereo in doubt) [Example 200, 3-[5-Trifluoromethyl-2-[1-(3-trifluoromethyl-phenyl)-ethoxy]-phenoxy]-azetidine] | 224 | 605 | 5000 | 7570 | 158 | 31 |  |  |  | 
23 | Clc1ccc(OC2CCc3ccccc3C2)c(OC2CNC2)c1 (centres unmarked) [Example 164, 3-[5-Chloro-2-(1,2,3,4-tetrahydro-naphthalen-2-yloxy)-phenoxy]-azetidine] | 8 | 24 | 181 | 30 |  | 33 |  |  |  | 
24 | Clc1cccc(COc2cc(Cl)ccc2O[C@@H]2CCNC2)c1 [Example 92, (R)-3-[4-Chloro-2-(3-chloro-benzyloxy)-phenoxy]-pyrrolidine] |  | 14 | 110 | 28 |  | 260 |  |  |  | 
25 | COc1cccc(CCOc2ccc(Cl)cc2OC2CNC2)c1 [Example 190, 3-[5-Chloro-2-[2-(3-methoxy-phenyl)-ethoxy]-phenoxy]-azetidine] | 211 | 14 | 56 | 69 |  | 8 |  |  |  | 
